Measured values reported in PubChem BioAssay AID1963436 (Molecular Pharmacology Branch, DTP, NCI, 2024).

Tested on: OVCAR-5 complex spheroid (HUVEC/MSC), viability % T/C
Assay: Anticancer human tumor OVCAR-5 cell line growth inhibition [Asc];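 further: spheroids exposed to agents for 7 days before readout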;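 on viability, T/C: 100% = DMSO vehicle-treated wells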
Settings: for IC50: curve of first compound; for viability, T/C: stronger effect = lower value
Procedure, shortened: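 Concentration series start at each agent's clinical Cmax, or at 10 microM when none is established, and drop in half-log steps; agents are applied alone or together to complex spheroids built with HUVEC and hMSC.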

[1] = second compound 0.01 µM, first compound 0.00949 µM
[2] = second compound 0.01 µM, first compound 0.03 µM
[3] = second compound 0.01 µM, first compound 0.0949 µM
[4] = second compound 0.01 µM, first compound 0.3 µM
[5] = second compound 0.01 µM, first compound 0.949 µM
[6] = second compound 0.01 µM, first compound 3 µM
[7] = second compound 0.0316 µM, first compound 0.00949 µM
[8] = second compound 0.0316 µM, first compound 0.03 µM
[9] = second compound 0.0316 µM, first compound 0.0949 µM
[10] = second compound 0.0316 µM, first compound 0.3 µM
[11] = second compound 0.0316 µM, first compound 0.949 µM
[12] = second compound 0.0316 µM, first compound 3 µM
[13] = second compound 0.1 µM, first compound 0.00949 µM
[14] = second compound 0.1 µM, first compound 0.03 µM
[15] = second compound 0.1 µM, first compound 0.0949 µM
[16] = second compound 0.1 µM, first compound 0.3 µM
[17] = second compound 0.1 µM, first compound 0.949 µM
[18] = second compound 0.1 µM, first compound 3 µM
[19] = second compound 0.316 µM, first compound 0.00949 µM
[20] = second compound 0.316 µM, first compound 0.03 µM
[21] = second compound 0.316 µM, first compound 0.0949 µM
[22] = second compound 0.316 µM, first compound 0.3 µM
[23] = second compound 0.316 µM, first compound 0.949 µM
[24] = second compound 0.316 µM, first compound 3 µM
[25] = second compound 1 µM, first compound 0.00949 µM
[26] = second compound 1 µM, first compound 0.03 µM
[27] = second compound 1 µM, first compound 0.0949 µM
[28] = second compound 1 µM, first compound 0.3 µM
[29] = second compound 1 µM, first compound 0.949 µM
[30] = second compound 1 µM, first compound 3 µM

With `C=CC(=O)N1CCN(c2nc(=O)n(-c3c(C)ccnc3C(C)C)c3nc(-c4c(O)cccc4F)c(F)cc23)C(C)C1` (stereo not given) + CNC(C)C(=O)NC1CN(S(=O)(=O)c2cccc(S(=O)(=O)N3CCC4CCC(C(=O)NC(c5ccccc5)c5ccccc5)N4C(=O)C(NC(=O)C(C)NC)C3)c2)CCC2CCC(C(=O)NC(c3ccccc3)c3ccccc3)N2C1=O the IC50 (second compound 0.01 µM) was greater than 10 µM, the IC50 (second compound 0.0316 µM) was greater than 10 µM and the IC50 (second compound 0.1 µM) was greater than 10 µM. The IC50 (second compound 0.316 µM) was greater than 10 µM, the IC50 (second compound 1 µM) was greater than 10 µM and the viability, T/C (second compound 0.01 µM, first compound 0.0316 µM) was 88.4%. The viability, T/C (second compound 0.01 µM, first compound 0.1 µM) was 89.9%, the viability, T/C (second compound 0.01 µM, first compound 0.316 µM) was 85.9% and the viability, T/C (second compound 0.01 µM, first compound 1 µM) was 100%. The viability, T/C (second compound 0.01 µM, first compound 3.16 µM) was 115%, the viability, T/C (second compound 0.01 µM, first compound 10 µM) was 105% and the viability, T/C (second compound 0.0316 µM, first compound 0.0316 µM) was 74.4%. For the same compound, the viability, T/C (second compound 0.0316 µM, first compound 0.1 µM) was 84.4%, the viability, T/C (second compound 0.0316 µM, first compound 0.316 µM) was 83.3% and the viability, T/C (second compound 0.0316 µM, first compound 1 µM) was 91.2%. It also gave a viability, T/C (second compound 0.0316 µM, first compound 3.16 µM) of 106%, a viability, T/C (second compound 0.0316 µM, first compound 10 µM) of 104% and a viability, T/C (second compound 0.1 µM, first compound 0.0316 µM) of 76.3%. It also gave a viability, T/C (second compound 0.1 µM, first compound 0.1 µM) of 87%, a viability, T/C (second compound 0.1 µM, first compound 0.316 µM) of 90.6% and a viability, T/C (second compound 0.1 µM, first compound 1 µM) of 88.2%. The viability, T/C (second compound 0.1 µM, first compound 3.16 µM) was 109%, the viability, T/C (second compound 0.1 µM, first compound 10 µM) was 103% and the viability, T/C (second compound 0.316 µM, first compound 0.0316 µM) was 76.4%. It also gave a viability, T/C (second compound 0.316 µM, first compound 0.1 µM) of 83.5%, a viability, T/C (second compound 0.316 µM, first compound 0.316 µM) of 84.9% and a viability, T/C (second compound 0.316 µM, first compound 1 µM) of 90.4%. It also gave a viability, T/C (second compound 0.316 µM, first compound 3.16 µM) of 104%, a viability, T/C (second compound 0.316 µM, first compound 10 µM) of 109% and a viability, T/C (second compound 1 µM, first compound 0.0316 µM) of 92.9%. The viability, T/C (second compound 1 µM, first compound 0.1 µM) was 100%, the viability, T/C (second compound 1 µM, first compound 0.316 µM) was 90.4% and the viability, T/C (second compound 1 µM, first compound 1 µM) was 96.7%. It also gave a viability, T/C (second compound 1 µM, first compound 3.16 µM) of 103% and a viability, T/C (second compound 1 µM, first compound 10 µM) of 102%.
`CCN1C(C(=O)NC23CCC(C(=O)O)(CC2)CC3)C(c2cccc(Cl)c2F)C2(C(=O)Nc3cc(Cl)ccc32)C12CCCCC2` (stereo not given) + CNC(C)C(=O)NC1CN(S(=O)(=O)c2cccc(S(=O)(=O)N3CCC4CCC(C(=O)NC(c5ccccc5)c5ccccc5)N4C(=O)C(NC(=O)C(C)NC)C3)c2)CCC2CCC(C(=O)NC(c3ccccc3)c3ccccc3)N2C1=O gave an IC50 (second compound 0.01 µM) greater than 3 µM, an IC50 (second compound 0.0316 µM) greater than 3 µM and an IC50 (second compound 0.1 µM) greater than 3 µM. The IC50 (second compound 0.316 µM) was greater than 3 µM, the IC50 (second compound 1 µM) was greater than 3 µM and the viability, T/C [1] was 92.6%. The viability, T/C [2] was 96.2%, the viability, T/C [3] was 94.8% and the viability, T/C [4] was 98%. The viability, T/C [5] was 106%, the viability, T/C [6] was 101% and the viability, T/C [7] was 84.8%. The viability, T/C [8] was 89%, the viability, T/C [9] was 80.7% and the viability, T/C [10] was 84.8%. For the same compound, the viability, T/C [11] was 83.4%, the viability, T/C [12] was 93.8% and the viability, T/C [13] was 88.6%. It also gave a viability, T/C [14] of 87.9%, a viability, T/C [15] of 88.6% and a viability, T/C [16] of 84.8%. For the same compound, the viability, T/C [17] was 90.7%, the viability, T/C [18] was 86.7% and the viability, T/C [19] was 84.4%. It also gave a viability, T/C [20] of 85%, a viability, T/C [21] of 79% and a viability, T/C [22] of 84.2%. It also gave a viability, T/C [23] of 94.8%, a viability, T/C [24] of 89.6% and a viability, T/C [25] of 97.2%. The viability, T/C [26] was 100%, the viability, T/C [27] was 86.9% and the viability, T/C [28] was 86.9%. It also gave a viability, T/C [29] of 90.1% and a viability, T/C [30] of 85.2%.
`Cc1nc(N2CCC3(CC2)COC(C)C3N)c(CO)nc1Sc1ccnc(N)c1Cl` (stereo not given) + CNC(C)C(=O)NC1CN(S(=O)(=O)c2cccc(S(=O)(=O)N3CCC4CCC(C(=O)NC(c5ccccc5)c5ccccc5)N4C(=O)C(NC(=O)C(C)NC)C3)c2)CCC2CCC(C(=O)NC(c3ccccc3)c3ccccc3)N2C1=O gave an IC50 (second compound 0.01 µM) greater than 3 µM, an IC50 (second compound 0.0316 µM) greater than 3 µM and an IC50 (second compound 0.1 µM) greater than 3 µM. For the same compound, the IC50 (second compound 0.316 µM) was greater than 3 µM, the IC50 (second compound 1 µM) was 2.51 µM and the viability, T/C [1] was 98.5%. The viability, T/C [2] was 91%, the viability, T/C [3] was 85% and the viability, T/C [4] was 77.7%. For the same compound, the viability, T/C [5] was 68.3%, the viability, T/C [6] was 63.8% and the viability, T/C [7] was 84.5%. It also gave a viability, T/C [8] of 92.3%, a viability, T/C [9] of 76.1% and a viability, T/C [10] of 66.7%. It also gave a viability, T/C [11] of 63.2%, a viability, T/C [12] of 56.2% and a viability, T/C [13] of 84%. For the same compound, the viability, T/C [14] was 82.3%, the viability, T/C [15] was 76.7% and the viability, T/C [16] was 61.4%. It also gave a viability, T/C [17] of 58.8%, a viability, T/C [18] of 52.1% and a viability, T/C [19] of 82.7%. The viability, T/C [20] was 74.6%, the viability, T/C [21] was 64.4% and the viability, T/C [22] was 62.1%. For the same compound, the viability, T/C [23] was 51.9%, the viability, T/C [24] was 55.2% and the viability, T/C [25] was 82.7%. For the same compound, the viability, T/C [26] was 80.8%, the viability, T/C [27] was 71.7% and the viability, T/C [28] was 64.4%. It also gave a viability, T/C [29] of 60.2% and a viability, T/C [30] of 47.7%.
